Publication PMC8715119, “Second-generation non-hematopoietic erythropoietin-derived peptide for neuroprotection” (Redox Biology, 2021)

What was measured:
[1] = tested on: rat primary cortical neurons; assay: Viability (Calcein-AM) under glutamate-induced excitotoxicity; format: cell-based; conditions: glutamate (30 μM) for 24 h, reEPO 0.5 IU/ml, peptides 1 ng/ml, n = 3, Fig. 4e
Method: On the embryonic day 17, embryonic cerebral cortices were dissected from pregnant Sprague–Dawley rats. The cerebral cortices were treated with 0.25% trypsin-EDTA (#25200056, Gibco, USA) and then mechanically dissociated into single cells by pipetting. The dissociated cells were plated on 96-well plates coated by 50 μg/ml poly-L-lysine (P8920, Sigma-Aldrich, USA) at a density of 2.5 × 10^4 cells per well. They were incubated in neurobasal medium (#21103049, Gibco, USA) containing 2% B27 supplement (#17504044, Gibco, USA), 0.5 mM L-glutamine (#15430614, Gibco, USA), 25 μM glutamic acid (#G1251, Sigma-Aldrich, USA), and 1% penicillin/streptomycin (#15140122, Gibco, USA) at 37°C with 5% CO2. The medium was changed to a fresh medium without glutamate every 3–4 days, and on day 10, glutamic acid (30 μM) was added to induce excitotoxicity in the cells treated with or without reEPO and peptides.
To measure the viability of rat primary cortical neurons, we used Calcein-AM (#C3100MP, Invitrogen, USA). Cultured rat cortical neurons plated on 96-well plates (2.5 × 10^4 cells per well) were incubated with Calcein-AM (3 μM) for 30 min after various treatments. The intensity of the Calcein-AM signal (excitation, 485 nm; detection 535 nm) was measured by using a micro plate reader (VersaMax, Molecular Devices, USA).

mouse ischemic model = assay: Middle cerebral artery occlusion (MCAO) and reperfusion, TTC staining of brain; format: in vivo; conditions: MCAO 90 min, 24 h reperfusion, intravenous reEPO 2000 IU/kg (n = 4)
From the text: The protocol of this experiment was approved by the Animal Care and Use Committee of the Keimyung University School of Medicine. After 1 week of acclimatization, mice were anesthetized with 3% isoflurane in a mixture of 70% N2O and 30% O2, and the anesthesia was maintained with 1.5–2.0% isoflurane. After the neck skin incision, the bifurcation of the common carotid artery was exposed. The external carotid artery was ligated, and the internal carotid artery was carefully isolated from the vagus nerve. A microvascular clip was placed across the right common carotid artery. Through the external carotid stump, a 7–0 surgical nylon monofilament with silicon coat was advanced into the right internal carotid artery up to the origin of the middle cerebral artery. […] During the surgery, rectal temperature was monitored and maintained at 37 ± 0.5 °C with a feedback-controlled heating pad (CMA 150, Stockholm, Sweden). […]
The brain was rapidly dissected out and coronally sliced into 2-mm-thick sections. […] The infarct volumes of the TTC-stained brain sections were imaged with a digital camera and analyzed. Using NIH ImageJ software (NIH, USA), the intensity of TTC in MCAO- and no-MCAO-performed hemispheres were digitally measured, and the ratio (MCAO versus non-MCAO) was presented as a percentage.

Q: For “reEPO: Recombinant human EPO (Epoetin-α, CJ HealthCare Corporation)”, which “Neuroprotective effect against glutamate-induced excitotoxicity (viability)” value [1] is on record?
A: The value was “showed a neuroprotective effect against glutamate-induced excitotoxicity”.

Q: And the “TTC staining in MCAO-performed versus contralateral side (brain injury)” value (mouse ischemic model)?
A: The value was “inhibited extinction of TTC-staining in MCAO-performed side”.
